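Step 1: Grow cells in 96-well plates. Step 2: Expose to compound for 48 hours at 5 concentrations. Step 3: Interpolate endpoints linearly; if unreached, use highest concentration. GI50 = concentration required for 50% inhibition of growth.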 Calls of active or inactive are those of the source. No stated cut-off is given here; in the data, active = GI50 up to about 1.1 µM and inactive = higher.

Test systems include NCI-H522; A549; SNB-19; CCRF-CEM; TK-10; ACHN; DU-145; HOP-62; OVCAR-8; NCI-H226; OVCAR-3; OVCAR-5; NCI/ADR-RES; MDA-MB-231; A498; NCI-H460; SK-MEL-28; U-251; Malme-3M; SR.
What all share (test): inhibition of tumour cell growth, NCI panel, 48 h

For `O=C(NC1(C(=O)O)CCCC1)c1ccccc1`, the GI50 in the test with NCI-H522, in the test with A549, in the test with SNB-19, in the test on CCRF-CEM, with TK-10 and in the test on ACHN was > 100 µM (inactive) throughout. In addition, the GI50 with DU-145, in the test with HOP-62, in the test on OVCAR-8, in the test on NCI-H226, in the test on OVCAR-3 and with OVCAR-5 was > 100 µM (inactive) each time. Further, the GI50 in the test on NCI/ADR-RES, in the test with MDA-MB-231, in the test on A498, with NCI-H460, with SK-MEL-28 and in the test on U-251 was > 100 µM (inactive) throughout.

Consider `O=C(O)CCSCc1ccc(I)cc1`, for which the GI50 in the test on NCI-H522, in the test with A549, with Malme-3M, in the test on SNB-19, with CCRF-CEM and in the test on TK-10 was > 100 µM (inactive) in each case. The GI50 with ACHN, in the test on DU-145, in the test with HOP-62, with OVCAR-8, with NCI-H226 and in the test with OVCAR-3 was > 100 µM (inactive) throughout. Moreover, the GI50 in the test on OVCAR-5, with NCI/ADR-RES, in the test on MDA-MB-231, with A498, with NCI-H460 and in the test with SK-MEL-28 was > 100 µM (inactive) in each case. For the same molecule, the GI50 in the test with U-251 is > 100 µM (inactive).

Regarding `CCCCN(c1ccccc1)c1ncnc2c1cnn2C`, the GI50 in the test with NCI-H522 was 19.9 µM (inactive); in the test on A549, 51.2 µM (inactive); in the test on Malme-3M it was 25.2 µM (inactive); with SNB-19 it was 89.9 µM (inactive); with CCRF-CEM, 21.3 µM (inactive); with TK-10, 39.2 µM (inactive). For the same molecule, the GI50 with ACHN was 37.7 µM (inactive); with DU-145, 53.6 µM (inactive); with HOP-62 it was 38.8 µM (inactive); with OVCAR-8, 41.2 µM (inactive); in the test with NCI-H226, > 100 µM (inactive); in the test on OVCAR-3, 24.8 µM (inactive). Moreover, the GI50 was 47.4 µM (inactive) in the test with OVCAR-5; 22.5 µM (inactive) in the test with NCI/ADR-RES; 26.6 µM (inactive) in the test with MDA-MB-231; 23.3 µM (inactive) in the test on A498; 31.6 µM (inactive) in the test on NCI-H460; 38.6 µM (inactive) with SK-MEL-28. For the same molecule, in the test with U-251, the GI50 was 44.2 µM (inactive).

Consider `COC1=C2C[C@@H](C)C[C@@H](OC)[C@@H](O)[C@H](C)/C=C(\C)[C@@H](OC(N)=O)[C@H](OC)/C=C\C=C(/C)C(=O)NC(=CC1=O)C2=O`, for which the GI50 is 0.036 µM (active) in the test with NCI-H522; 5.78 µM (inactive) with A549; 0.044 µM (active) with Malme-3M; 10.2 µM (inactive) with SNB-19; 0.0282 µM (active) in the test on CCRF-CEM; 0.118 µM (active) in the test with TK-10. The GI50 in the test on DU-145 was 0.106 µM (active); in the test with HOP-62 it was 3.38 µM (inactive); with OVCAR-8, 0.0614 µM (active); in the test with NCI-H226, 3.56 µM (inactive); with OVCAR-3, 0.213 µM (active); in the test on OVCAR-5, 6.87 µM (inactive). Further, the GI50 was 10.1 µM (inactive) with NCI/ADR-RES; 0.0421 µM (active) in the test with MDA-MB-231; 1.49 µM (inactive) with NCI-H460; 0.113 µM (active) in the test on SK-MEL-28; 2.93 µM (inactive) in the test with U-251.

Consider `CC(C)(C)NC(NC(C)(C)C)=C(/C=C(/Cl)[N+](=O)[O-])[N+](=O)[O-]`, for which the GI50 in the test with NCI-H522 was > 100 µM (inactive); in the test with A549, 25.7 µM (inactive); in the test with Malme-3M, 10.3 µM (inactive); with SNB-19, > 100 µM (inactive); in the test on CCRF-CEM it was 67.8 µM (inactive); in the test with TK-10, > 100 µM (inactive). In addition, the GI50 in the test on SR is 32.6 µM (inactive); in the test on ACHN, 65.3 µM (inactive); in the test with DU-145, > 100 µM (inactive); in the test with HOP-62, > 100 µM (inactive); in the test with OVCAR-8, 38.7 µM (inactive); in the test with NCI-H226, > 100 µM (inactive). In addition, the GI50 in the test on OVCAR-3 was 20 µM (inactive); in the test with OVCAR-5, > 100 µM (inactive); in the test with MDA-MB-231, > 100 µM (inactive); in the test with A498, > 100 µM (inactive); in the test on NCI-H460, 52.2 µM (inactive); in the test with SK-MEL-28, > 100 µM (inactive). Besides, in the test on U-251, the GI50 was > 100 µM (inactive).

As to `O=C(CN1C(=O)CC(c2ccccc2)(c2ccccc2)C1=O)N1CCN(CCO)CC1`, the GI50 in the test with NCI-H522, with A549, with SNB-19, with CCRF-CEM, with TK-10 and with ACHN was > 100 µM (inactive) throughout. Moreover, the GI50 with DU-145, in the test with HOP-62, in the test on OVCAR-8, with OVCAR-3, with OVCAR-5 and in the test on NCI/ADR-RES was > 100 µM (inactive) each time. Besides, the GI50 in the test on MDA-MB-231, with A498, in the test on SK-MEL-28 and in the test on U-251 was > 100 µM (inactive) in each case.

Take `CN(C)CCNC(=O)c1cccc2nc3c4ccccc4c4ccccc4c3nc12`: the GI50 with NCI-H522 was 2.71 µM (inactive); in the test with A549 it was 2.74 µM (inactive); in the test on Malme-3M it was 1.8 µM (inactive); with SNB-19, 3.48 µM (inactive); in the test on CCRF-CEM, 1.13 µM (inactive); in the test with TK-10, 5.38 µM (inactive). Moreover, the GI50 in the test with SR was 0.773 µM (active); with ACHN, 5.01 µM (inactive); in the test on DU-145 it was 1.79 µM (inactive); with HOP-62, 16.2 µM (inactive); in the test with OVCAR-8 it was 2.02 µM (inactive); in the test on NCI-H226, 9.86 µM (inactive). Also, the GI50 is 3.44 µM (inactive) with OVCAR-3; 7.67 µM (inactive) with OVCAR-5; 1.82 µM (inactive) in the test on MDA-MB-231; 7 µM (inactive) with A498; 0.875 µM (active) in the test on NCI-H460; 1.79 µM (inactive) in the test with SK-MEL-28. Further, the GI50 in the test on U-251 was 2 µM (inactive).

In the case of `Cc1ccccc1NC(=O)Cc1csc(N/N=C2\C(=O)Nc3ccccc32)n1`, the GI50 was 17.7 µM (inactive) with NCI-H522; 48.9 µM (inactive) in the test on A549; 32.4 µM (inactive) in the test on Malme-3M; 71.8 µM (inactive) in the test on SNB-19; 46 µM (inactive) in the test with CCRF-CEM; 53.2 µM (inactive) in the test with TK-10. Also, the GI50 is 36.8 µM (inactive) with ACHN; 75 µM (inactive) in the test with DU-145; 16.6 µM (inactive) in the test on OVCAR-8; 41.8 µM (inactive) in the test on NCI-H226; 41.7 µM (inactive) with OVCAR-5; 29.7 µM (inactive) in the test on NCI/ADR-RES. In addition, the GI50 in the test with MDA-MB-231 was 29.7 µM (inactive); in the test with A498 it was > 100 µM (inactive); in the test with NCI-H460, 35.4 µM (inactive); in the test with SK-MEL-28, 1 µM (active); with U-251, 1 µM (active).

Consider `CCN1CC2(C)CCC(OC)C34C5CC6CCC(O)(C5C(=O)O6)C(C(O)C23)C14` (stereo not given), for which the GI50 in the test on NCI-H522, in the test with A549, with Malme-3M, with SNB-19, with CCRF-CEM and with TK-10 was > 100 µM (inactive) in each case. Also, the GI50 in the test on ACHN, in the test with DU-145, in the test with HOP-62, in the test on OVCAR-8, in the test on OVCAR-3 and in the test with OVCAR-5 was > 100 µM (inactive) in each case. Also, the GI50 with NCI/ADR-RES, in the test with MDA-MB-231, in the test with A498, in the test on NCI-H460, in the test with SK-MEL-28 and in the test with U-251 was > 100 µM (inactive) in each case.

As to `CC1CCC(=O)C(C(=O)CC2CC(=O)N(C)C(=O)C2)C1` (stereo not given), the GI50 with NCI-H522, with A549, in the test with Malme-3M, in the test with SNB-19, in the test with CCRF-CEM and in the test on TK-10 was > 100 µM (inactive) each time. In addition, the GI50 in the test with ACHN, with DU-145, in the test on HOP-62, with OVCAR-8, in the test with NCI-H226 and in the test with OVCAR-3 was > 100 µM (inactive) each time. The GI50 with OVCAR-5, in the test on NCI/ADR-RES, in the test on MDA-MB-231, in the test with A498, with NCI-H460 and in the test with SK-MEL-28 was > 100 µM (inactive) in each case. In the test on U-251, the GI50 is > 100 µM (inactive).

On to `CNc1ccc(-c2nc3cc(C)ccc3o2)cc1`, for which the GI50 is 88.1 µM (inactive) in the test on NCI-H522; > 100 µM (inactive) in the test with A549; > 100 µM (inactive) in the test with Malme-3M; 57.5 µM (inactive) in the test on SNB-19; > 100 µM (inactive) in the test on CCRF-CEM; 67.8 µM (inactive) in the test on TK-10. Moreover, the GI50 in the test on ACHN was 57.3 µM (inactive); in the test on DU-145, > 100 µM (inactive); in the test with HOP-62, 19.9 µM (inactive); with OVCAR-8 it was 58.1 µM (inactive); with NCI-H226, 45.3 µM (inactive); with OVCAR-3, > 100 µM (inactive). Further, the GI50 with OVCAR-5 is > 100 µM (inactive); in the test with NCI/ADR-RES, 64.6 µM (inactive); with MDA-MB-231, 40.1 µM (inactive); in the test on A498 it was 27.4 µM (inactive); in the test with NCI-H460, > 100 µM (inactive); in the test on SK-MEL-28, > 100 µM (inactive). The GI50 in the test on U-251 was 58.6 µM (inactive).

These data come from ChEMBL document CHEMBL1201862, “PubChem BioAssay data set” (2004).
